IC50, Activity and Ki data for eight compounds are collected here from ChEMBL document CHEMBL3045570, “Rational herbicide design by inhibition of tryptophan biosynthesis” (Bioorg Med Chem Lett, 1999).

The source made the active and inactive calls. The calls are words filed in the database; no cut-off is given here.

Assay [1] can be described thus: Inhibition of Salmonella enterica subsp. enterica serovar Typhimurium tryptophan synthase alpha subunit. The conditions noted are these: read-out: I50.
For another assay, the system named is Amaranthus viridis. In words: Herbicidal activity against Amaranthus viridis assessed as injury at 4 kg/ha applied as spray during postemergence measured after 2 weeks. It is filed as functional.
The subject of a further assay is Chenopodium album. In words: Herbicidal activity against Chenopodium album assessed as injury at 4 kg/ha applied as spray during postemergence measured after 2 weeks. Type of assay: functional.
In assay [2] the target is T1, Tryptophan synthase alpha /beta chains (Escherichia coli K-12, UniProt P0A877+P0A879).
T1 sequence (P0A879 whole entry): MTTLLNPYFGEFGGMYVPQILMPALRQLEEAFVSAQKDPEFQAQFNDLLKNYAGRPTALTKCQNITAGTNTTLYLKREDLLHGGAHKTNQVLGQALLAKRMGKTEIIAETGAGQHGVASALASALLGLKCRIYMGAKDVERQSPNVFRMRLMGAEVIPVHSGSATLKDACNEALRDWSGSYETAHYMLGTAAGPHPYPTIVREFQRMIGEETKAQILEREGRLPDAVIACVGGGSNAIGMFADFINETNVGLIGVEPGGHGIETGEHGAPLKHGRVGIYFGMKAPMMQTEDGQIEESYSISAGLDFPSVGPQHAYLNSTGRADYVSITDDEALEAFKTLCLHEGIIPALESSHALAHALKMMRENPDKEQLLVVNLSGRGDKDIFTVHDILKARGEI
T1 sequence (P0A877 whole entry): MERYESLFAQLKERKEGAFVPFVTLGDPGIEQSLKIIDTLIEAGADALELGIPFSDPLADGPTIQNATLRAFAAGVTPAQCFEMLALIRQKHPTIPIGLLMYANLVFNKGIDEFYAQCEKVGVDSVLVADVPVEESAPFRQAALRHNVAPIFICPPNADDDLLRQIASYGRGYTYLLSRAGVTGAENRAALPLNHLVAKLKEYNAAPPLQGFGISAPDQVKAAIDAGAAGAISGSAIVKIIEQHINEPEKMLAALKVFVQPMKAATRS
In words: Binding affinity to tryptophan synthase alpha2/beta2 complex in Escherichia coli K-12 by equlibrium dialysis method. It is filed as protein-complex assay.

For assay [3], the system named is Arabidopsis thaliana. Kind of assay: Herbicidal activity against Arabidopsis thaliana seedlings assessed as injury at 31 to 1000 uM. Type of assay: functional, organism-based.
In assay [4] the test system is Arabidopsis thaliana. In words: Herbicidal activity against Arabidopsis thaliana seedlings assessed as chlorosis at 125 to 1000 uM. Type of assay: functional, organism-based.
Assay [5] concerns Arabidopsis thaliana. Kind of assay: Herbicidal activity against Arabidopsis thaliana seedlings assessed as injury at 8 to 1000 uM in presence of tryptophan. It is filed as functional, organism-based.
Assay [6] deals with Arabidopsis thaliana. Kind of assay: Herbicidal activity against Arabidopsis thaliana seedlings assessed as injury at 8 to 16 uM. It is filed as functional, organism-based.
In assay [7] the test system is Arabidopsis thaliana. In words: Herbicidal activity against Arabidopsis thaliana seedlings assessed as chlorosis at 8 to 1000 uM. It is filed as functional, organism-based.
For assay [8], the system named is Arabidopsis thaliana. Kind of assay: Herbicidal activity against Arabidopsis thaliana seedlings assessed as injury at 8 to 1000 uM. Type of assay: functional, organism-based.

As for `O=P(O)(O)CCCCc1c[nH]c2ccccc12`, the IC50 in [1] was found to be 20000 nM.

Consider `Nc1ccccc1SCCCCP(=O)(O)O`, for which the Activity result with Amaranthus viridis and with Chenopodium album was “<=65%” in each case. In addition, in assay [1], the IC50 was 400 nM.

With `O=P(O)(O)OCCCc1c[nH]c2ccccc12`, in assay [1], the IC50 came to 5000 nM. In addition, in assay [2], the Ki is 15000 nM.

On to `O=P(O)(O)CCCCSc1ccccc1O`, for which the Activity entry with Amaranthus viridis and in the assay with Chenopodium album was “<=80%” in each case. Besides, the outcome in the assay on Arabidopsis thaliana [3] and with Arabidopsis thaliana [4] was Active. Also, the IC50 in assay [1] amounted to 130 nM. For the same compound, the result in the assay with Arabidopsis thaliana [5] and in the assay on Arabidopsis thaliana [6] was inactive.

As to `O=P(O)(O)CCCc1c[nH]c2ccccc12`, in assay [1], the IC50 came to 12500 nM.

As to `O=P(O)(O)/C=C/CC[S+]([O-])c1ccccc1O` (centres undefined), the Activity result with Amaranthus viridis and in the assay with Chenopodium album was “<=80%” throughout. Also, the outcome in the assay with Arabidopsis thaliana [7] and in the assay with Arabidopsis thaliana [8] was Active. Also, in assay [1], the IC50 was 440 nM. Further, in the assay with Arabidopsis thaliana [5], the outcome was inactive.

Turning to `O=P(O)(O)/C=C/CCSc1ccccc1O`, the Activity entry with Amaranthus viridis and with Chenopodium album was “<=80%” throughout. In addition, the outcome in the assay on Arabidopsis thaliana [7] and with Arabidopsis thaliana [8] was Active. Further, in assay [1], the IC50 turned out to be 570 nM. In the assay on Arabidopsis thaliana [5], the outcome was inactive.

Consider `O=P(O)(O)/C=C/CCS(=O)(=O)c1ccccc1O`, for which the result in the assay with Amaranthus viridis and with Chenopodium album was inactive. Also, the IC50 in assay [1] worked out at 360 nM.
